Data: patent publication US9049874B2, “Use of azaperone for reducing antibiotic usage” (Elanco Animal Health Ireland Limited, priority 2008, dated 2015)

System: weaned pigs
Assay: Preclinical study of the effects of azaperone administered via drinking water: therapeutic usage of antibiotics
Format: in vivo
Settings: for number of pigs treated (therapeutic use of antibiotics): 6 mg azaperone per liter drinking water for first 3 days
Method: The study was performed in weaned pigs to investigate the effect of azaperone that was continuously orally administered via drinking water on postweaning diarrhoea and associated usage of antibiotics, behaviour, feed conversion, growth and homogeneity of growth. Groups of approximately 250 pigs were enrolled in the study starting from the moment they were weaned. The pigs were housed according to everyday farming conditions in a conventional pig farm. All pigs were housed in similar buildings. Each group was housed in 2 compartments, gilts and barrows were housed in separate compartments. Pigs were kept in pens of approximately 12 individuals each. After weaning, the piglets were housed in continuous artificial light for the first 48 hours. Afterwards, pigs were housed in continuous darkness for the further duration of the study, except during observations (twice a day). During the course of the study, pigs were not vaccinated. A metaphylactic colistine treatment via drinking water was applied in each group starting from the fifth day after weaning. Treatment continued for seven days. Pigs were fed ad libitum. Troughs were filled automatically with a computerized system that records the supplied weight of feed per pen. During the first ten days of the nursery period, pigs were fed a pelleted weaner feed which had also been available to the piglets in the farrowing unit. Between the 10th and 15th day at the nursery, the weaner feed was gradually replaced by grower pellets which have been given until the 35th day. Finally a switch was made between the 35th and the 40th day from grower pellets to starter pellets. Tap water was available during the whole period of the study and was supplied via a water nipple in the feeding trough. The drinking water comprising azaperone was obtained by diluting Stresnil™ injection in water to obtain a concentration of 6 mg azaperone per liter drinking water. A primary dilution was prepared by diluting 90 ml of Stresnil™ 4% injectable solution with tap water to obtain 6 liters of preparation. This primary dilution was linked for 24 hours with an automatic dosing system which continuously diluted the preparation in the drinking water at a rate of 1 to 100. One preparation of the primary dilution was sufficient to treat 600 liters of drinking water which exceeded the anticipated daily consumed volume of water by the pigs in one compartment. The two following days, a new primary dilution was made fresh each morning and linked to the automatic dosing system for 24 hours. This study was a controlled parallel study with 4 sequential groups of approximately 250 weaned pigs each. The first and third group were treated with azaperone via the drinking water for 3 consecutive days. The second and fourth group were control groups treated with placebo (plain drinking water). [table] On day one of the test period, water containing 6 mg azaperone per liter or placebo, was made available. Starting from the fourth day, the drinking water no longer contained azaperone. All pigs followed the normal procedures for further fattening. No pigs were brought to the slaughterhouse during the study (3 days dosing and 39 days follow-up). In order to assess the effect of the oral azaperone administration on the onset of postweaning diarrhoea and concomittant therapeutic usage of antibiotics, the occurrence of diarrhoea was followed in groups 1 to 4 and recorded daily by the Principal Investigator. All individual pens were checked by the Principal Investigator and a diarrhoea score was noted as follows: Any use of antibiotics in groups 1 to 4 was recorded the first three weeks after weaning and grouping of the animals. The decision to treat an animal with antibiotics was made by the Principal Investigator according to everyday practice on that farm.

[1] = during the nursery period, azaperone-treated group

O=C(CCCN1CCN(c2ccccn2)CC1)c1ccc(F)cc1 [azaperone]
usage of antibiotics compared to placebo-treated groups (6 mg/liter water during first three days of 42 day test period): significant reduction of the usage of antibiotics
number of piglets treated with antibiotics (conclusion) (6 mg/liter water during first three days of 42 day test period, vs. 29 in placebo): 11
number of individual antibiotic treatments (conclusion) (6 mg/liter water during first three days of 42 day test period, vs. 33 in placebo): 13
number of ampicilline injections [1]: 1
number of enrofloxacine injections [1]: 4
number of oxytetracycline injections [1]: 2
number of piglets treated with antibiotics for curative reasons [1]: 7 piglets
total number of individual injections with antibiotics [1]: 7 injections
number of pigs treated (therapeutic use of antibiotics) (week 1 after weaning): 4
number of pigs treated (therapeutic use of antibiotics) (week 2 after weaning): 3
number of pigs treated (therapeutic use of antibiotics) (week 3 after weaning): 0
